Source: PubChem BioAssay AID1963421 (Molecular Pharmacology Branch, DTP, NCI, 2024)

System: 519858-162-T-J1-PDC complex spheroid growth, % test/control
Test: Anticancer human tumor 519858-162-T-J1-PDC patient-derived colon adenocarcinoma cell line growth inhibition [Asc]
Details: for IC50: curve of first compound; for viability, T/C: stronger effect = lower value
Summary of the method: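 Spheroid model: tumor line + HUVEC + hMSC. Single agents and combinations; top conc. at/near clinical Cmax (10 microM if undetermined), half-log dilutions. DMSO stocks at 800-fold test concentration.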

[1] = second compound 0.0316 µM, first compound 0.00316 µM
[2] = second compound 0.0316 µM, first compound 0.01 µM
[3] = second compound 0.0316 µM, first compound 0.0316 µM
[4] = second compound 0.0316 µM, first compound 0.1 µM
[5] = second compound 0.1 µM, first compound 0.00316 µM
[6] = second compound 0.1 µM, first compound 0.01 µM
[7] = second compound 0.1 µM, first compound 0.0316 µM
[8] = second compound 0.1 µM, first compound 0.1 µM
[9] = second compound 0.316 µM, first compound 0.00316 µM
[10] = second compound 0.316 µM, first compound 0.01 µM
[11] = second compound 0.316 µM, first compound 0.0316 µM
[12] = second compound 0.316 µM, first compound 0.1 µM
[13] = second compound 1 µM, first compound 0.00316 µM
[14] = second compound 1 µM, first compound 0.01 µM
[15] = second compound 1 µM, first compound 0.0316 µM
[16] = second compound 1 µM, first compound 0.1 µM
[17] = second compound 3.16 µM, first compound 0.00316 µM
[18] = second compound 3.16 µM, first compound 0.01 µM
[19] = second compound 3.16 µM, first compound 0.0316 µM
[20] = second compound 3.16 µM, first compound 0.1 µM
[21] = second compound 10 µM, first compound 0.00316 µM
[22] = second compound 10 µM, first compound 0.01 µM
[23] = second compound 10 µM, first compound 0.0316 µM
[24] = second compound 10 µM, first compound 0.1 µM
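Also: seven day drug exposure begun three days after spheroid seeding.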
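For viability, T/C in this document: 100% = DMSO vehicle wells and lower values mean less viable spheroid.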

COc1c(OCCCN2CCOCC2)ccc2c3n(c(=NC(=O)c4cnc(N)nc4)nc12)CCN3 + Cc1c(S(C)(=O)=O)c(-c2cc(F)cc(N3CCN(c4ccc(NS(=O)(=O)c5ccc(NC(CCN6CCC(C(=O)OCCCP(=O)(O)O)CC6)CSc6ccccc6)c(S(=O)(=O)C(F)(F)F)c5)cc4)CC3)c2)c(-c2ccc(Cl)cc2)n1C(C)C
IC50 (second compound 0.0316 µM): > 1000 nM
IC50 (second compound 0.1 µM): 578 nM
IC50 (second compound 0.316 µM): > 1000 nM
IC50 (second compound 1 µM): 238 nM
IC50 (second compound 3.16 µM): > 1000 nM
IC50 (second compound 10 µM): > 1000 nM
viability, T/C [1]: 41.6%
viability, T/C [2]: 97.5%
viability, T/C [3]: 74.9%
viability, T/C [4]: 95.5%
viability, T/C (second compound 0.0316 µM, first compound 0.316 µM): 54.4%
viability, T/C (second compound 0.0316 µM, first compound 1 µM): 52.7%
viability, T/C [5]: 68.5%
viability, T/C [6]: 94.5%
viability, T/C [7]: 64.7%
viability, T/C [8]: 100%
viability, T/C (second compound 0.1 µM, first compound 0.316 µM): 53.2%
viability, T/C (second compound 0.1 µM, first compound 1 µM): 47.1%
viability, T/C [9]: 65.2%
viability, T/C [10]: 103%
viability, T/C [11]: 69.4%
viability, T/C [12]: 72.7%
viability, T/C (second compound 0.316 µM, first compound 0.316 µM): 52.2%
viability, T/C (second compound 0.316 µM, first compound 1 µM): 53.5%
viability, T/C [13]: 108%
viability, T/C [14]: 97.1%
viability, T/C [15]: 74.7%
viability, T/C [16]: 59.8%
viability, T/C (second compound 1 µM, first compound 0.316 µM): 46.8%
viability, T/C (second compound 1 µM, first compound 1 µM): 42.2%
viability, T/C [17]: 84.1%
viability, T/C [18]: 60.8%
viability, T/C [19]: 79.2%
viability, T/C [20]: 70.3%
viability, T/C (second compound 3.16 µM, first compound 0.316 µM): 53.9%
viability, T/C (second compound 3.16 µM, first compound 1 µM): 55.6%
viability, T/C [21]: 78.3%
viability, T/C [22]: 72.1%
viability, T/C [23]: 71.1%
viability, T/C [24]: 45.6%
viability, T/C (second compound 10 µM, first compound 0.316 µM): 58.2%
viability, T/C (second compound 10 µM, first compound 1 µM): 46.2%

Cn1ncnc1[C@H]1c2n[nH]c(=O)c3cc(F)cc(c23)N[C@@H]1c1ccc(F)cc1 + Cc1c(S(C)(=O)=O)c(-c2cc(F)cc(N3CCN(c4ccc(NS(=O)(=O)c5ccc(NC(CCN6CCC(C(=O)OCCCP(=O)(O)O)CC6)CSc6ccccc6)c(S(=O)(=O)C(F)(F)F)c5)cc4)CC3)c2)c(-c2ccc(Cl)cc2)n1C(C)C
IC50 (second compound 0.0316 µM): > 100 nM
IC50 (second compound 0.1 µM): > 100 nM
IC50 (second compound 0.316 µM): > 100 nM
IC50 (second compound 1 µM): > 100 nM
IC50 (second compound 3.16 µM): > 100 nM
IC50 (second compound 10 µM): 100 nM
viability, T/C (second compound 0.0316 µM, first compound 0.000316 µM): 119%
viability, T/C (second compound 0.0316 µM, first compound 0.001 µM): 120%
viability, T/C [1]: 73%
viability, T/C [2]: 100%
viability, T/C [3]: 69%
viability, T/C [4]: 95.4%
viability, T/C (second compound 0.1 µM, first compound 0.000316 µM): 121%
viability, T/C (second compound 0.1 µM, first compound 0.001 µM): 78.9%
viability, T/C [5]: 85.8%
viability, T/C [6]: 123%
viability, T/C [7]: 76.6%
viability, T/C [8]: 54.9%
viability, T/C (second compound 0.316 µM, first compound 0.000316 µM): 115%
viability, T/C (second compound 0.316 µM, first compound 0.001 µM): 101%
viability, T/C [9]: 61.3%
viability, T/C [10]: 92.9%
viability, T/C [11]: 83.7%
viability, T/C [12]: 89.4%
viability, T/C (second compound 1 µM, first compound 0.000316 µM): 88.8%
viability, T/C (second compound 1 µM, first compound 0.001 µM): 76.5%
viability, T/C [13]: 131%
viability, T/C [14]: 60.8%
viability, T/C [15]: 74.6%
viability, T/C [16]: 90.5%
viability, T/C (second compound 3.16 µM, first compound 0.000316 µM): 104%
viability, T/C (second compound 3.16 µM, first compound 0.001 µM): 87.1%
viability, T/C [17]: 83.7%
viability, T/C [18]: 75.2%
viability, T/C [19]: 113%
viability, T/C [20]: 79.1%
viability, T/C (second compound 10 µM, first compound 0.000316 µM): 69.5%
viability, T/C (second compound 10 µM, first compound 0.001 µM): 95.7%
viability, T/C [21]: 63.2%
viability, T/C [22]: 49.6%
viability, T/C [23]: 61.3%
viability, T/C [24]: 61.4%
